The text below walks through data of PMC3975887, “The structures of cytosolic and plastid-located glutamine synthetases from Medicago truncatula reveal a common and dynamic architecture” (Acta Crystallographica Section D: Biological Crystallography, 2014).

Usually stoichiometry N stands for the number of molecules, sites or subunits per partner or assembly.

Where two headings read alike, the source gives them in different places.

The target in one data set is T1, M. truncatula GSII-2a (Medicago truncatula, UniProt Q84UC1).
T1 sequence (Q84UC1 50-428): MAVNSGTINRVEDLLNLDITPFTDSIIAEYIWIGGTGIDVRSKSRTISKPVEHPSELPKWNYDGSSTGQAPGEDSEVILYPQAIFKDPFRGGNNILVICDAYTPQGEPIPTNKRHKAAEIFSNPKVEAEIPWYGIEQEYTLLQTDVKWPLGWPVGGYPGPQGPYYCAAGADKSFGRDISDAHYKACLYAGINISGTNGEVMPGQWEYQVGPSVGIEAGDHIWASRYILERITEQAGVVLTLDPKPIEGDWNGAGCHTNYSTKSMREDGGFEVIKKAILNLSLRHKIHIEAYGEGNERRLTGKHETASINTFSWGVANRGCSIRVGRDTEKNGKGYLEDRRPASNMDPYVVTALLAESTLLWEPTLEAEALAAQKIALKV
The data set can be described thus: GS synthetase reaction inhibition, GSII-2a. It is filed as biochemical. The method, then: (§1) The activities of the His-tagged GS isoenzymes (GSII-1a, GSII-1b, GSII-2a and GSII-2b) were determined by quantifying the γ-glutamyl hydroxamate produced by the synthetase reaction (GSs) as described previously (Cullimore & Sims, 1981[▶]; Cullimore et al., 1982[▶]). The reactions started by the addition of 10 µg purified His-tagged GS isoenzyme to the assay mixture (100 mM Tris buffer pH 7.8, 100 mM glutamate, 8 mM ATP, 8 mM hydroxylamine, 16 mM MgSO4) were allowed to proceed at 30°C for 15 min and were stopped by adding one volume of stop solution (0.37 M FeCl3, 0.67 M HCl, 0.2 M TCA). GS specific activity was determined as the amount of γ-glutamyl hydroxamate produced per minute per milligram of purified protein (µmol min^−1 mg^−1). GS inhibition was evaluated by adding increasing concentrations of either phosphinothricin (PPT; Fluka; 0, 0.005, 0.01, 0.05, 0.1, 0.5, 1, 1.5, 2.5, 5, 10 and 20 mM) or methionine-S-sulfoximine (MSO; Sigma; 0, 0.5, 1, 1.5, 2.5, 5, 10, 20, 40 and 60 mM) to the reaction mixture. GS inhibition assays were performed at two different glutamate concentrations (20 and 100 mM). IC50 was calculated by nonlinear regression using the LogIC50 equation of GraphPad Prism5 (GraphPad Software).

The target in the next data set is T2, M. truncatula GSII-1b (Medicago truncatula, UniProt O04999).
T2 sequence (O04999 1-356): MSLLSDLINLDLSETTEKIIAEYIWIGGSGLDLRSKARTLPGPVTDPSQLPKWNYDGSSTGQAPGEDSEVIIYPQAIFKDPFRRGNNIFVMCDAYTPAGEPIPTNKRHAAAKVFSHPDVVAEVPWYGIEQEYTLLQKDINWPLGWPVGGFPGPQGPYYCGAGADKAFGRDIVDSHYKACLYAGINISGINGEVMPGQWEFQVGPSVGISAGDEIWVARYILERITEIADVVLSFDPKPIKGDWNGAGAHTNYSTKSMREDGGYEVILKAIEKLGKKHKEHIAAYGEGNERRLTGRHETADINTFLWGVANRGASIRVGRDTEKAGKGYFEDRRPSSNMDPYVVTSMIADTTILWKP
The data set can be described thus: GS synthetase reaction inhibition, GSII-1b. It is filed as biochemical. The method, then: as §1

The target in a further data set is T3, M. truncatula GSII-2b (Medicago truncatula, UniProt E1ANG4).
T3 sequence (E1ANG4 50-428): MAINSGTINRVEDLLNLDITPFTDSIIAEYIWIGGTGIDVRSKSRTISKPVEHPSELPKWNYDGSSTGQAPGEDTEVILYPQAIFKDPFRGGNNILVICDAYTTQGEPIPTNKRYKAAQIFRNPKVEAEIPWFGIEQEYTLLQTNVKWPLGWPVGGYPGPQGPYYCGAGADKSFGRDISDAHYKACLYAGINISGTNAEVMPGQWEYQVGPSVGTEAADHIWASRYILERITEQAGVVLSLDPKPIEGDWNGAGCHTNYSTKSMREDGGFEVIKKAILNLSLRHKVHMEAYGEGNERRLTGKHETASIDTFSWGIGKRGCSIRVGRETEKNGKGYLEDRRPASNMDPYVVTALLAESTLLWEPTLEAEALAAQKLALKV
The data set can be described thus: GS synthetase reaction inhibition, GSII-2b. It is filed as biochemical. How it is done: as §1

The next data set deals with T4, M. truncatula GSII-1a (Medicago truncatula, UniProt O04998).
T4 sequence (O04998 1-356): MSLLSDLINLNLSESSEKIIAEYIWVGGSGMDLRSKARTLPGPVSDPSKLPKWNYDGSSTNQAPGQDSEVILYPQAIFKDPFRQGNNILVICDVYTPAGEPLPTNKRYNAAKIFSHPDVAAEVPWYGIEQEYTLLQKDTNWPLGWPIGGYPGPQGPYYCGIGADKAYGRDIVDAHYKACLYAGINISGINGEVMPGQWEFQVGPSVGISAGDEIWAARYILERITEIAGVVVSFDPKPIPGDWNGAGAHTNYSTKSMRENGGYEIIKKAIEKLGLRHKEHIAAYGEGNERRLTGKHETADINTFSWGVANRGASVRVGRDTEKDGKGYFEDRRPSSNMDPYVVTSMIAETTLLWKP
Kind of data set: GS synthetase reaction inhibition, GSII-1a. It is filed as biochemical. How it is done:
as §1

The test system of the next data set is plant GSII. More on the design: method as in Evstigneeva et al., 2003. The note with it: plant GSII overall; ref Evstigneeva et al., 2003; cited from earlier work.
Data set [1] addresses Medicago truncatula plastid-located glutamine synthetase GSII-2a (mature polypeptide) (Medicago truncatula). The data set can be described thus: cryo-EM structure; purified GSII-2a 0.3 mg/ml vitrified; single-particle reconstruction with D5 symmetry applied, 3117 side-view particles with parallel rings, 20 Å.
Data set [2] has the same target. Kind of data set: native MS; high activation conditions: collision energy increased from 100 to 200 V; ammonium acetate buffer pH 7.5; decamer to pentamers in the gas phase.
The target is the same in data set [3]. Kind of data set: native MS; nondenaturing conditions, ammonium acetate buffer pH 7.5, nano-electrospray, capillary voltage 1700 V, cone potential 50 V.
For data set [4] the target is unchanged. The data set can be described thus: native MS; high activation conditions: collision energy increased from 100 to 200 V; ammonium acetate buffer pH 7.5; decamer to pentamers in the gas phase. This is another data set of the same source.
Data set [5] concerns the molecule itself. Kind of data set: crystal structure; apo form, space group P2_(1), decamer in the asymmetric unit, 2.35 Å.
Where [6] appears, read: MSO titration using 20 mM glutamate, His-tagged enzyme, read-out: IC50 (concentration of inhibitor reducing the GS activity by 50%).
Where [7] appears, read: standard GS assay conditions (100 mM glutamate).

Take `CS(=N)(=O)CC[C@H](N)C(=O)O` (some centres unmarked) [MSO, methionine-S-sulfoximine]: the IC50 was determined as 3600 µM at M. truncatula GSII-2a (setting [6]), 2200 µM at M. truncatula GSII-1b (setting [6]) and 9500 µM at M. truncatula GSII-1a (setting [6]). In addition, the “GS inhibition under the standard GS assay conditions” value on M. truncatula GSII-2a (setting [7]), on M. truncatula GSII-1b (setting [7]), on M. truncatula GSII-2b (setting [7]) and at M. truncatula GSII-1a (setting [7]) was “poorly inhibited” throughout.

With `CP(=O)(O)CC[C@H](N)C(=O)O` [PPT, phosphinothricin], the IC50 is 260 µM against M. truncatula GSII-2a, 670 µM against M. truncatula GSII-1b, 720 µM against M. truncatula GSII-2b and 760 µM against M. truncatula GSII-1a. The “times more effectively inhibited by PPT than by MSO” value in the data set on plant GSII is on record as 5–10 times.

As to “Medicago truncatula plastid-located glutamine synthetase GSII-2a (mature polypeptide) (enzyme)”, the stoichiometry N in [1] stood at 10; in [2], 5; in data set [3], 10; in data set [4] it was 10.

B1: Medicago truncatula cytosolic glutamine synthetase GSII-1a (enzyme, UniProt O04998 1-356, looked up)
chain: MSLLSDLINLNLSESSEKIIAEYIWVGGSGMDLRSKARTLPGPVSDPSKLPKWNYDGSSTNQAPGQDSEVILYPQAIFKDPFRQGNNILVICDVYTPAGEPLPTNKRYNAAKIFSHPDVAAEVPWYGIEQEYTLLQKDTNWPLGWPIGGYPGPQGPYYCGIGADKAYGRDIVDAHYKACLYAGINISGINGEVMPGQWEFQVGPSVGISAGDEIWAARYILERITEIAGVVVSFDPKPIPGDWNGAGAHTNYSTKSMRENGGYEIIKKAIEKLGLRHKEHIAAYGEGNERRLTGKHETADINTFSWGVANRGASVRVGRDTEKDGKGYFEDRRPSSNMDPYVVTSMIAETTLLWKP
notes: Glutamine synthetase GSII-1a, cytosolic, Medicago truncatula, UniProt O04998; Apo form; also called MtGSII-1a; MtGSII1a; source: recombinant, N-terminally His-tagged; cloning and crystallisation described previously (Seabra et al., 2009); not shown: His tag, N-terminal, kept; copies: 10
B1: the “stoichiometry N” value in data set [5] worked out at 10.
